Reference: patent publication US9593108B2, “Compounds and methods for antiviral treatment” (PTC Therapeutics, Inc., priority 2009, dated 2017)

Experiments:
[1] = system: HCV replicon RNA (GenBank Accession No. AJ242654); assay: HCV Replicon Assay (replicon RNA reduction and/or Fluc reporter signal); assay type: cell-based, Hepatitis C virus; conditions: Hepatitis C virus, 72 h, replicon-containing cells cultured with test compound for up to 3 days
In short: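 IC50 values mostly reflect the drop in replicon RNA, though Fluc reporter signal may also be used. Compound incubated with cells carrying the bicistronic replicon for as long as 3 days; interferon served as positive control.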

For `CN(Cc1ccccc1)c1cnc2c(c1)c(C#N)c(-c1ccc(S(=O)(=O)NC(C)(C)C)cc1)n2C1CCC1` [Cpd 351, 4-{5-[benzyl(methyl)amino]-3-cyano-1-cyclobutyl-1H-pyrrolo[2,3-b]pyridin-2-yl}-N-tert-butylbenzenesulfonamide], the IC50 [1] was 2 to 5 µM and the melting point was 168 to 171 °C.
In the case of `Cc1ccnc(-n2c(-c3ccc(S(=O)(=O)N[C@@H](C)C(F)(F)F)cn3)c(C#N)c3cc(C(F)(F)F)cnc32)n1` [Cpd 355, 6-[3-cyano-1-(4-methylpyrimidin-2-yl)-5-(trifluoromethyl)-1H-pyrrolo[2,3-b]pyridin-2-yl]-N-[(2S)-1,1,1-trifluoropropan-2-yl]pyridine-3-sulfonamide], the IC50 [1] is reported as < 0.5 µM and the melting point is reported as 176 to 180 °C.
With `C[C@H](NS(=O)(=O)c1ccc(-c2c(C(N)=O)c3cc(F)cnc3n2C2CCC2)nc1)C(F)(F)F` [Cpd 356, 1-cyclobutyl-5-fluoro-2-(5-{[(2S)-1,1,1-trifluoropropan-2-yl]sulfamoyl}pyridin-2-yl)-1H-pyrrolo[2,3-b]pyridine-3-carboxamide] the IC50 [1] was < 0.5 µM and the melting point was 223 to 225 °C.
With `COc1cnc2c(c1)c(C(N)=O)c(-c1ccc(S(=O)(=O)N[C@@H](C)C(F)(F)F)cn1)n2C1CCCC1` [Cpd 357, 1-cyclopentyl-5-methoxy-2-(5-{[(2S)-1,1,1-trifluoropropan-2-yl]sulfamoyl}pyridin-2-yl)-1H-pyrrolo[2,3-b]pyridine-3-carboxamide] the IC50 [1] was < 0.5 µM and the melting point was 263 to 264 °C.
With `CSc1cnc2c(c1)c(C(N)=O)c(-c1ccc(NS(=O)(=O)C(C)C)cc1)n2C1CCCC1` [Cpd 358, 1-cyclopentyl-5-(methylsulfanyl)-2-{4-[(propan-2-ylsulfonyl)amino]phenyl}-1H-pyrrolo[2,3-b]pyridine-3-carboxamide] the IC50 [1] was < 0.5 µM and the melting point was 250 to 252 °C.
In the case of `COc1cnc2c(c1)c(C(N)=O)c(-c1ccc(NS(=O)(=O)C(C)(C)C)cc1)n2C1CCCC1` [Cpd 359, 2-{4-[(tert-butylsulfonyl)amino]phenyl}-1-cyclopentyl-5-methoxy-1H-pyrrolo[2,3-b]pyridine-3-carboxamide], the IC50 [1] is reported as < 0.5 µM and the melting point is reported as 269 to 272 °C.
In the case of `C[C@H](NS(=O)(=O)c1ccc(-c2c(C#N)c3cc(C(F)(F)F)cnc3n2C2CC2)nc1)C(F)(F)F` [Cpd 360, 6-[3-cyano-1-cyclopropyl-5-(trifluoromethyl)-1H-pyrrolo[2,3-b]pyridin-2-yl]-N-[(2S)-1,1,1-trifluoropropan-2-yl]pyridine-3-sulfonamide], the IC50 [1] is reported as < 0.5 µM and the melting point is reported as 194 to 196 °C.
For `C[C@H](NS(=O)(=O)c1ccc(-c2c(C#N)c3cc([S+](C)[O-])cnc3n2C2CCC2)nc1)C(F)(F)F` (stereo partly drawn) [Cpd 363, [3-cyano-1-cyclobutyl-2-(5-{[(2S)-1,1,1-trifluoropropan-2-yl]sulfamoyl}pyridin-2-yl)-1H-pyrrolo[2,3-b]pyridin-5-yl](methyl)sulfoniumolate], the IC50 [1] was < 0.5 µM and the melting point was 257 to 258 °C.
For `CSc1cnc2c(c1)c(C#N)c(-c1ccc(S(=O)(=O)NC3(C(F)(F)F)CC3)cc1)n2C1CCC1` [Cpd 364, 4-[3-cyano-1-cyclobutyl-5-(methylsulfanyl)-1H-pyrrolo[2,3-b]pyridin-2-yl]-N-[1-(trifluoromethyl)cyclopropyl]benzenesulfonamide], the IC50 [1] was < 0.5 µM and the melting point was 197 to 199 °C.
For `COc1cnc2c(c1)c(C#N)c(-c1ccc(S(=O)(=O)N[C@@H](C)C(F)(F)F)cn1)n2-c1cnccn1` [Cpd 365, 6-[3-cyano-5-methoxy-1-(pyrazin-2-yl)-1H-pyrrolo[2,3-b]pyridin-2-yl]-N-[(2S)-1,1,1-trifluoropropan-2-yl]pyridine-3-sulfonamide], the IC50 [1] was < 0.5 µM and the melting point was 220 to 225 °C.
With `Cc1cnc2c(c1)c(C#N)c(-c1ccc(S(=O)(=O)N[C@@H](C)C(F)(F)F)cn1)n2-c1ccncc1` [Cpd 368, 6-[3-cyano-5-methyl-1-(pyridin-4-yl)-1H-pyrrolo[2,3-b]pyridin-2-yl]-N-[(2S)-1,1,1-trifluoropropan-2-yl]pyridine-3-sulfonamide] the IC50 [1] was < 0.5 µM and the melting point was 243 to 245 °C.
In the case of `CC(C)(C)NS(=O)(=O)c1ccc(-c2c(C#N)c3cc(Cl)cnc3n2C2CCC2)cc1` [Cpd 371, N-tert-butyl-4-(5-chloro-3-cyano-1-cyclobutyl-1H-pyrrolo[2,3-b]pyridin-2-yl)benzenesulfonamide], the IC50 [1] is reported as < 0.5 µM and the melting point is reported as 244 to 246 °C.
With `NC(=O)c1c(-c2ccc(S(=O)(=O)NC3(C(F)(F)F)CC3)cc2)n(C2CCC2)c2ncc(C3CC3)cc12` [Cpd 373, 1-cyclobutyl-5-cyclopropyl-2-(4-{[1-(trifluoromethyl)cyclopropyl]sulfamoyl}phenyl)-1H-pyrrolo[2,3-b]pyridine-3-carboxamide] the IC50 [1] was < 0.5 µM and the melting point was 224 to 229 °C.
In the case of `CC(C)(C)NS(=O)(=O)c1ccc(-c2c(C(N)=O)c3cc(C4CC4)cnc3n2C2CCC2)nc1` [Cpd 376, 2-[5-(tert-butylsulfamoyl)pyridin-2-yl]-1-cyclobutyl-5-cyclopropyl-1H-pyrrolo[2,3-b]pyridine-3-carboxamide], the IC50 [1] is reported as < 0.5 µM and the melting point is reported as 245 to 252 °C.
In the case of `CCc1cnc2c(c1)c(C(N)=O)c(-c1ccc(S(=O)(=O)N[C@@H](C)C(F)(F)F)cn1)n2C1CCC1` [Cpd 377, 1-cyclobutyl-5-ethyl-2-(5-{[(2S)-1,1,1-trifluoropropan-2-yl]sulfamoyl}pyridin-2-yl)-1H-pyrrolo[2,3-b]pyridine-3-carboxamide], the IC50 [1] is reported as < 0.5 µM and the melting point is reported as 236 to 240 °C.
In the case of `CCc1cnc2c(c1)c(C(N)=O)c(-c1ccc(S(=O)(=O)NC(C)(C)C(F)(F)F)cc1)n2C1CCC1` [Cpd 378, 1-cyclobutyl-5-ethyl-2-{4-[(1,1,1-trifluoro-2-methylpropan-2-yl)sulfamoyl]phenyl}-1H-pyrrolo[2,3-b]pyridine-3-carboxamide], the IC50 [1] is reported as < 0.5 µM and the melting point is reported as 185 to 193 °C.
In the case of `CCc1cnc2c(c1)c(C(N)=O)c(-c1ccc(S(=O)(=O)NC3(C(F)(F)F)CC3)cc1)n2C1CCC1` [Cpd 379, 1-cyclobutyl-5-ethyl-2-(4-{[1-(trifluoromethyl)cyclopropyl]sulfamoyl}phenyl)-1H-pyrrolo[2,3-b]pyridine-3-carboxamide], the IC50 [1] is reported as < 0.5 µM and the melting point is reported as 173 to 179 °C.
With `Cc1cnc2c(c1)c(C#N)c(-c1ccc(S(=O)(=O)N[C@@H](C)C(F)(F)F)cn1)n2-c1cccnn1` [Cpd 383, 6-[3-cyano-5-methyl-1-(pyridazin-3-yl)-1H-pyrrolo[2,3-b]pyridin-2-yl]-N-[(2S)-1,1,1-trifluoropropan-2-yl]pyridine-3-sulfonamide] the IC50 [1] was < 0.5 µM and the melting point was 150 to 153 °C.
In the case of `Cc1cnc2c(c1)c(C#N)c(-c1ccc(S(=O)(=O)N[C@@H](C)C(F)(F)F)cn1)n2-c1cncnc1` [Cpd 384, 6-[3-cyano-5-methyl-1-(pyrimidin-5-yl)-1H-pyrrolo[2,3-b]pyridin-2-yl]-N-[(2S)-1,1,1-trifluoropropan-2-yl]pyridine-3-sulfonamide], the IC50 [1] is reported as < 0.5 µM and the melting point is reported as 231 to 233 °C.
With `CC(C)(C)S(=O)(=O)Nc1ccc(-c2c(C#N)c3cc(Cl)cnc3n2C2CCC2)cc1` [Cpd 385, N-[4-(5-chloro-3-cyano-1-cyclobutyl-1H-pyrrolo[2,3-b]pyridin-2-yl)phenyl]-2-methylpropane-2-sulfonamide] the IC50 [1] was < 0.5 µM and the melting point was 240 to 241 °C.
For `CSc1cnc2c(c1)c(C(N)=O)c(-c1ccc(NS(=O)(=O)C(C)(C)C)cc1)n2C1CCC1` [Cpd 387, 2-{4-[(tert-butylsulfonyl)amino]phenyl}-1-cyclobutyl-5-(methylsulfanyl)-1H-pyrrolo[2,3-b]pyridine-3-carboxamide], the IC50 [1] was < 0.5 µM and the melting point was 240 to 241 °C.
In the case of `CC(C)(NS(=O)(=O)c1ccc(-c2c(C(N)=O)c3cccnc3n2C2CCC2)cc1)C(F)(F)F` [Cpd 388, 1-cyclobutyl-2-{4-[(1,1,1-trifluoro-2-methylpropan-2-yl)sulfamoyl]phenyl}-1H-pyrrolo[2,3-b]pyridine-3-carboxamide], the IC50 [1] is reported as 0.5 to 2 µM and the melting point is reported as 240 to 242 °C.
For `CSc1cnc2c(c1)c(C(N)=O)c(-c1ccc(S(=O)(=O)NC(C)(C)C(F)(F)F)cc1)n2C1CCC1` [Cpd 391, 1-cyclobutyl-5-(methylsulfanyl)-2-{4-[(1,1,1-trifluoro-2-methylpropan-2-yl)sulfamoyl]phenyl}-1H-pyrrolo[2,3-b]pyridine-3-carboxamide], the IC50 [1] was < 0.5 µM and the melting point was 204 to 205 °C.
For `CSc1cnc2c(c1)c(C(N)=O)c(-c1ccc(S(=O)(=O)NC(C)(C)C)cc1)n2C1CCC1` [Cpd 392, 2-[4-(tert-butylsulfamoyl)phenyl]-1-cyclobutyl-5-(methylsulfanyl)-1H-pyrrolo[2,3-b]pyridine-3-carboxamide], the IC50 [1] was < 0.5 µM and the melting point was 224 to 226 °C.
For `CC(C)(C)NS(=O)(=O)c1ccc(-c2c(C(N)=O)c3cc(Cl)cnc3n2C2CCC2)cc1` [Cpd 393, 2-[4-(tert-butylsulfamoyl)phenyl]-5-chloro-1-cyclobutyl-1H-pyrrolo[2,3-b]pyridine-3-carboxamide], the IC50 [1] was < 0.5 µM and the melting point was 269 to 270 °C.
With `CC(C)(NS(=O)(=O)c1ccc(-c2c(C#N)c3cc(C(F)(F)F)cnc3n2C2CCC2)nc1)C(F)(F)F` [Cpd 395, 6-[3-cyano-1-cyclobutyl-5-(trifluoromethyl)-1H-pyrrolo[2,3-b]pyridin-2-yl]-N-(1,1,1-trifluoro-2-methylpropan-2-yl)pyridine-3-sulfonamide] the IC50 [1] was < 0.5 µM and the melting point was 174 to 176 °C.
For `N#Cc1c(-c2ccc(S(=O)(=O)NC3(C(F)(F)F)CC3)cn2)n(C2CCC2)c2ncc(C(F)(F)F)cc12` [Cpd 396, 6-[3-cyano-1-cyclobutyl-5-(trifluoromethyl)-1H-pyrrolo[2,3-b]pyridin-2-yl]-N-[1-(trifluoromethyl)cyclopropyl]pyridine-3-sulfonamide], the IC50 [1] was < 0.5 µM and the melting point was 156 to 158 °C.
